{"source": "patent US11452718B2", "about": "(AVALYN PHARMA INC., priority 2012, dated 2022)", "key": {"[1]": {"biological_target": "T1, CYP1A2 (Homo sapiens, UniProt P05177)", "T1 construct": "In vitro metabolism studies with hepatic microsomes; from tissue; host or cells: hepatic microsomes", "T1 sequence (P05177 whole entry)": "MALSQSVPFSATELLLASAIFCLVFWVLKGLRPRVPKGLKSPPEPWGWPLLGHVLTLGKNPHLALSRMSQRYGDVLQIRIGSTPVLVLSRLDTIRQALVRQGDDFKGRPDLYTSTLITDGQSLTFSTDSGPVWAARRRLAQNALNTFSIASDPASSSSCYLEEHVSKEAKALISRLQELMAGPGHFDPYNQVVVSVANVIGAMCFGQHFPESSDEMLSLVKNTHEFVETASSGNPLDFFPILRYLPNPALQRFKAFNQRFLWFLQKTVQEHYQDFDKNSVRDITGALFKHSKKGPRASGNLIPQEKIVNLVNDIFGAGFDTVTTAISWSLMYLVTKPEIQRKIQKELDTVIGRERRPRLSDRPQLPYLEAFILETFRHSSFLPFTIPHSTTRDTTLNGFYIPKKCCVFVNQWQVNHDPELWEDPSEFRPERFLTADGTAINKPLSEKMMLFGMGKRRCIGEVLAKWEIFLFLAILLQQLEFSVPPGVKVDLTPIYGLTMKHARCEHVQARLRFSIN", "details": "hepatic microsomes; cited from earlier work"}, "[2]": {"assay": "Bleomycin model of pulmonary fibrosis: right lung hydroxyproline content, left lung fibrosis score", "format": "in vivo, Wistar rats", "details": "Wistar, rat, plasma, read-out: Plasma AUCO-2 hrs", "protocol": "(§1) To compare anti-fibrotic efficacy between extended-duration intratracheal, direct-lung aerosol administration and oral gavage, the bleomycin model of pulmonary fibrosis was performed. Doses for this study were selected based upon pharmacokinetic parameters obtained in Table 22 (from Example 8). Briefly, Wistar rats (175-225 grams) were administered bleomycin by the intratracheal route using a Penn Century MicroSprayer® catheter. On the seventh day following bleomycin exposure, animals initiated treatment with either saline or pirfenidone. Animals were dosed once a day on days 7 through 28, and euthanized on day 29. Pirfenidone was administered either intratracheally using Penn Century MicroSprayer catheter or by oral gavage. Sham and bleomycin control groups received either no treatment or intratracheal saline by Penn Century MicroSprayer catheter. While dosing more frequently (or less frequently) may improve the observed effects, anesthesia required for intratracheal administration reduced animal weight gain (reduced food intake) and, thus limited dosing to once a day for this study. Because anesthesia reduced weight gain, all study animals (intratracheal, oral and control) received once-a-day isoflurane using the same technique and duration. Twelve animals were enrolled into each dosing group. […] Oral gavage was administered in a single 300 mcL volume. Due to technical restrictions, instead of the mg/kg dose being equally split between six 50 mcL administrations over 2 minutes, intratracheal administration was performed with three equal 50 mcL volumes administered every 40 seconds over the same period. For dose selection, data from Table 22 was extrapolated. On day 29, animals were euthanized. Right lungs were extracted and measured for hydroxyproline content, while left lungs were subjected to histology. Histological sections were stained with picrosirius red and scored for lung tissue fibrosis. Twenty random photographs of each stained lung tissue section were taken, blinded and scored by an independent review panel. Observations were pooled for analysis. […] Doses selected for this study targeted critical pharmacokinetic parameters from the comparator oral route (matching lung tissue Cmax or plasma AUC). These targets were selected from a pharmacokinetic study wherein lung tissue and plasma were collected and pirfenidone levels were compared. In these studies, lung tissue Cmax following intratracheal administration was always the first collected time point. It is important to consider that the duration of time required to collect this first lung tissue may not accurately capture the true lung Cmax. […] It was this pharmacokinetic point that the above Cmax for dosing was selected. If it was possible to collect lung tissue earlier, the Cmax may be higher. As the Penn Century MicroSprayer catheter delivers nearly the entire loaded dose, the possible delivered Cmax in these studies may be higher. […] In this study, we divided the dose into thirds."}, "[3]": {"tested_on": "bleomycin model of pulmonary fibrosis", "assay": "Bleomycin model of pulmonary fibrosis: right lung hydroxyproline content, left lung fibrosis score", "format": "in vivo, Wistar rats", "details": "for Average Hydroxyproline, difference from bleomycin control: sham-subtracted", "protocol": "as §1"}, "[4]": {"assay": "Co-solvent and surfactant effects on pirfenidone solubility", "format": "physicochemical", "method": "Each sample was agitated at ambient temperature overnight. The samples were visually inspected and appearance recorded. Samples were centrifuged to sediment any un-dissolved material and the supernatant withdrawn via syringe through a 0.22 μm PVDF filter. […] The remaining filtered sample was split into three equal volumes in glass vials and placed at 25° C./60RH, 40° C./75RH and refrigeration. Samples are wrapped in aluminum foil to reduce light exposure. After the first night of incubation, samples are briefly visually inspected for any signs of discoloration or precipitate formation."}, "[5]": {"details": "cited from earlier work"}, "[6]": {"assay": "Pharmacokinetics and lung-tissue distribution after oral gavage or intratracheal aerosol", "format": "in vivo, Sprague-Dawley rats", "details": "for Lung AUC: for time >1 μg/g", "protocol": "Solutions were vortexed until all crystals dissolved. […] Plasma samples were taken at pre-dose, 0.08, 0.16, 0.25, 0.5, 0.75, 1.0, 1.5, 2, 4, and 6 hours post dosing. For lung tissue samples, eight additional rats were also dosed 70 mg/kg by the oral route. Lungs were taken at pre-dose 0.08, 0.5, 2, and 4 hours post dosing. Materials were extracted and pirfenidone quantitated as μg/mL plasma and μg/gram lung tissue. […]"}, "[7]": {"assay": "Extended-duration intratracheal and oral pharmacokinetic study", "format": "in vivo, Wistar rats", "protocol": "Previous intratracheal aerosol delivery (see Example 6) was performed as a single bolus instillation just above the first bifurcation of the lung. For in vivo efficacy studies, an attempt was made to mimic tidal inhaled breathing by splitting the dose into equal parts and administering as before, but over a 2 minute period. […] Doses were prepared in 0.45% sodium chloride solution and were administered as described in Table 21.\nPlasma samples and entire lungs were taken at pre-dose, 2, 4, 6, 10, 30, 60 and 120 minutes post dosing. Materials were extracted and pirfenidone quantitated as mcg/mL plasma and μg/gram lung tissue."}, "[8]": {"details": "bolus aerosol intratracheal 1 mg/kg"}, "[9]": {"details": "bolus aerosol intratracheal 5 mg/kg"}, "[10]": {"details": "intratracheal aerosol 2.5 mg/kg, extended-duration (2 minutes)"}, "[11]": {"details": "intratracheal aerosol 5 mg/kg, extended-duration (2 minutes)"}, "[12]": {"details": "intratracheal aerosol 10 mg/kg, extended-duration (2 minutes)"}}, "note": "Read-outs that look alike come from different tables or passages of the source."}
{"smiles": "Cc1ccc(=O)n(-c2ccccc2)c1", "note": "[pirfenidone, 5-methyl-1-phenyl-2-(1H)-pyridone]", "values": [{"measurement": "share of pirfenidone metabolised via the enzyme", "setting": "[1]", "result": "approximately 48%"}, {"measurement": "AUC", "setting": "[2]; inhaled or intranasal, Bleomycin + IT 0.9 mg/kg", "result": 3000, "unit": "ng·h/mL"}, {"measurement": "AUC", "setting": "[2]; inhaled or intranasal, Bleomycin + IT 3.0 mg/kg", "result": 7700, "unit": "ng·h/mL"}, {"measurement": "AUC", "setting": "[2]; inhaled or intranasal, Bleomycin + IT 6.4 mg/kg", "result": 16500, "unit": "ng·h/mL"}, {"measurement": "AUC", "setting": "[2]; Bleomycin + PO 30 mg/kg", "result": 16600, "unit": "ng·h/mL"}, {"measurement": "AUC", "setting": "[2]; Bleomycin + PO 100 mg/kg", "result": 29600, "unit": "ng·h/mL"}, {"measurement": "possible lung tissue Cmax", "setting": "[3]; 0.9 mg/kg intratracheal dose divided into thirds", "result": "about 50 mcg/gram lung tissue"}, {"measurement": "possible lung tissue Cmax", "setting": "[3]; 0.9 mg/kg intratracheal dose to a 250 gram rat, lung about 1.5 grams, whole dose", "result": "≤ 150", "unit": "mcg/gram"}, {"measurement": "anti-fibrotic efficacy", "setting": "[3]; 3.0 mg/kg intratracheal, direct lung aerosol rat dose", "result": "no observed pirfenidone efficacy"}, {"measurement": "Lung Tissue AUC0-2 hrs", "setting": "[3]; Bleomycin + IT 0.9 mg/kg", "result": 2.6, "unit": "µg·h/g"}, {"measurement": "Lung Tissue Cmax", "setting": "[3]; Bleomycin + IT 0.9 mg/kg", "result": 11.6, "unit": "µg/g"}, {"measurement": "Average Hydroxyproline, difference from bleomycin control", "setting": "[3]; Bleomycin + IT 0.9 mg/kg", "result": "−0.70*, **** mg/rightlung"}, {"measurement": "Lung Tissue AUC0-2 hrs", "setting": "[3]; Bleomycin + IT 3.0 mg/kg", "result": 7.3, "unit": "µg·h/g"}, {"measurement": "Lung Tissue Cmax", "setting": "[3]; Bleomycin + IT 3.0 mg/kg", "result": 33.5, "unit": "µg/g"}, {"measurement": "Average Hydroxyproline, difference from bleomycin control", "setting": "[3]; Bleomycin + IT 3.0 mg/kg", "result": "−0.02**, **** mg/rightlung"}, {"measurement": "Lung Tissue AUC0-2 hrs", "setting": "[3]; Bleomycin + IT 6.4 mg/kg", "result": 15.5, "unit": "µg·h/g"}, {"measurement": "Lung Tissue Cmax", "setting": "[3]; Bleomycin + IT 6.4 mg/kg", "result": 71.5, "unit": "µg/g"}, {"measurement": "Average Hydroxyproline, right lung", "setting": "[3]; Bleomycin + IT 6.4 mg/kg once a day, days 7 through 28", "result": 3.50, "unit": "mg/right lung"}, {"measurement": "Average Hydroxyproline, difference from bleomycin control", "setting": "[3]; Bleomycin + IT 6.4 mg/kg", "result": "−0.08***, **** mg/rightlung"}, {"measurement": "Lung Tissue AUC0-2 hrs", "setting": "[3]; Bleomycin + PO 30 mg/kg", "result": 18.2, "unit": "µg·h/g"}, {"measurement": "Lung Tissue Cmax", "setting": "[3]; Bleomycin + PO 30 mg/kg", "result": 11.8, "unit": "µg/g"}, {"measurement": "Lung Tissue AUC0-2 hrs", "setting": "[3]; Bleomycin + PO 100 mg/kg", "result": 34.4, "unit": "µg·h/g"}, {"measurement": "Lung Tissue Cmax", "setting": "[3]; Bleomycin + PO 100 mg/kg", "result": 33.6, "unit": "µg/g"}, {"measurement": "anti-fibrotic efficacy, direct lung delivery versus oral", "setting": "[3]; intratracheal aerosol versus oral gavage", "result": "more efficacious (less fibrosis and less hydroxyproline)"}, {"measurement": "Pirfenidone Saturation Solubility", "setting": "[4]; 4% EtOH, 0.1% CPB, 95.9% water, pH 4.9", "result": 20.2, "unit": "mg/mL"}, {"measurement": "effect of co-solvent on saturation solubility", "setting": "[4]; ethanol (EtOH) or propylene glycol (PG)", "result": "increase the saturation solubility"}, {"measurement": "effect of co-solvents on saturation solubility", "setting": "[4]; ethanol and propylene glycol together", "result": "additive effect in increasing the saturation solubility"}, {"measurement": "Lung Cmax", "setting": "[5]; 40 mg/kg intravenous dose", "result": 30, "unit": "mcg/gram wet tissue"}, {"measurement": "plasma Cmax", "setting": "[5]; 40 mg/kg intravenous dose", "result": "about 55 mcg/mL"}, {"measurement": "wet lung half-life, longer than the plasma half-life", "setting": "[5]; intravenous", "result": "about 45%"}, {"measurement": "Lung TOE: time of exposure over 1 μg/g lung tissue", "setting": "[6]; [8]", "result": 5, "unit": "min"}, {"measurement": "Lung Cmax", "setting": "[6]; bolus aerosol intratracheal 1 mg/kg, immediate post-dose calculated from the direct-lung delivered dose", "result": 101, "unit": "µg/g"}, {"measurement": "Lung TOE: time of exposure over 1 μg/g lung tissue", "setting": "[6]; [9]", "result": 84, "unit": "min"}, {"measurement": "Lung Cmax", "setting": "[6]; bolus aerosol intratracheal 5 mg/kg, immediate post-dose calculated from the direct-lung delivered dose", "result": 508, "unit": "µg/g"}, {"measurement": "Lung AUC", "setting": "[6]; [8]", "result": 5.2, "unit": "mg·h/kg"}, {"measurement": "Lung AUC", "setting": "[6]; [9]", "result": 25.4, "unit": "mg·h/kg"}, {"measurement": "Lung AUC", "setting": "[6]; oral 70 mg/kg", "result": 4.3, "unit": "mg·h/kg"}, {"measurement": "Lung Cmax", "setting": "[6]; oral 70 mg/kg", "result": 3.6, "unit": "µg/g"}, {"measurement": "Lung TOE: time of exposure over 1 μg/g lung tissue", "setting": "[6]; oral 70 mg/kg", "result": 89, "unit": "min"}, {"measurement": "adverse events", "setting": "[7]; extended-duration intratracheal aerosol or oral gavage", "result": "No adverse events were noted"}, {"measurement": "Lung Tissue AUC(0-2 hr)", "setting": "[7]; [10]", "result": 3.5, "unit": "µg·h/g"}, {"measurement": "Lung Tissue Cmax", "setting": "[7]; [10]", "result": 14.4, "unit": "μg/gram"}, {"measurement": "Lung Tissue AUC(0-2 hr)", "setting": "[7]; [11]", "result": 6.6, "unit": "µg·h/g"}, {"measurement": "Lung Tissue Cmax", "setting": "[7]; [11]", "result": 27.9, "unit": "μg/gram"}, {"measurement": "Lung Tissue AUC(0-2 hr)", "setting": "[7]; [12]", "result": 14.5, "unit": "µg·h/g"}, {"measurement": "Lung Tissue Cmax", "setting": "[7]; [12]", "result": 61.1, "unit": "μg/gram"}, {"measurement": "Lung Tissue AUC(0-2 hr)", "setting": "[7]; oral gavage 10 mg/kg", "result": 4.9, "unit": "µg·h/g"}, {"measurement": "Lung Tissue Cmax", "setting": "[7]; oral gavage 10 mg/kg", "result": 3.5, "unit": "μg/gram"}, {"measurement": "Lung Tissue AUC(0-2 hr)", "setting": "[7]; oral gavage 30 mg/kg", "result": 13.5, "unit": "µg·h/g"}, {"measurement": "Lung Tissue Cmax", "setting": "[7]; oral gavage 30 mg/kg", "result": 9.8, "unit": "μg/gram"}, {"measurement": "Lung Tissue AUC(0-2 hr)", "setting": "[7]; oral gavage 100 mg/kg", "result": 27.9, "unit": "µg·h/g"}, {"measurement": "Lung Tissue Cmax", "setting": "[7]; oral gavage 100 mg/kg", "result": 33.6, "unit": "μg/gram"}]}
